{"source": "patent US20240000885A1", "about": "(VANDERBILT UNIVERSITY, published 2024)", "molecules": {"B1": {"name": "MHV M tail with deletion of the terminal 2 amino acids (other)", "chain": "SIRLFIRTGSWWSFNPETNNLMCIDMKGTVYVRPIIEDYHTLTATIIRGHLYMQGVKLGTGFSLSDLPAYVTVAKVSHLCTYKRAFLDKVDGVSGFAVYVKSKVGNYRLPSNKPSGADTALL"}}, "key": {"[1]": {"molecular_target": "interaction of MHV M tail with MYO5B(ABCDE) (UniProt P03415+Q9ULV0)", "format": "cell-based, Mouse Hepatitis Virus (MHV)"}, "[2]": {"molecular_target": "interaction of MHV M-GFP with Cherry-MYO5B+D tail (902T) in A549 cells (UniProt P03415+Q9ULV0)", "sequence (Q9ULV0 902-1848, one chain of several)": "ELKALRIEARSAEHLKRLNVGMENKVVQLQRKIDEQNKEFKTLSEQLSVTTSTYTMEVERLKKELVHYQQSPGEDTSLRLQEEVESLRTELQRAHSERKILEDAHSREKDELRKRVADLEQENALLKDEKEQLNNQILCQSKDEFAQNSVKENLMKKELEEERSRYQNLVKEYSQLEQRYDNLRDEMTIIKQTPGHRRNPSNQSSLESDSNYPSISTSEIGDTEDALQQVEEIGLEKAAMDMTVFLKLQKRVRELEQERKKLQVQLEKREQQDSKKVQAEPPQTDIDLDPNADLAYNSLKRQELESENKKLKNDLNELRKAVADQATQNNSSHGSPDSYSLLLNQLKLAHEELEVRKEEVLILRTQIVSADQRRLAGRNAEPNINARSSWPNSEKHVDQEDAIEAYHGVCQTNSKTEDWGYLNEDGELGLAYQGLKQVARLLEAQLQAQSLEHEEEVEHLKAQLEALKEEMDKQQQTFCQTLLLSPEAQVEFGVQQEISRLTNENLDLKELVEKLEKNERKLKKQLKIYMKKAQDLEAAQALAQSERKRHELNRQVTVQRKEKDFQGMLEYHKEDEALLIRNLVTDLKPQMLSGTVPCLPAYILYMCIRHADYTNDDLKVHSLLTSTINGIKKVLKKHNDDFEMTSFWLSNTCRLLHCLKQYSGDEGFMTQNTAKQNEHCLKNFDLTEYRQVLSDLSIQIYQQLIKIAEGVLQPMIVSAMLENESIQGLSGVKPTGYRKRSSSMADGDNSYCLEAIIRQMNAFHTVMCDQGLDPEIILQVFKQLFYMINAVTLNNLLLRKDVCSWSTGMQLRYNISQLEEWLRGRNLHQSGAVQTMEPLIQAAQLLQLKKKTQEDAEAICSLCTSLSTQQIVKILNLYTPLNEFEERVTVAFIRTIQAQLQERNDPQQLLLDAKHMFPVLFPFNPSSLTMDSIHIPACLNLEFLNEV", "format": "cell-based, human"}, "pAD-MYO5B(ABCDE)": {"molecular_target": "T1, pAD-MYO5B(ABCDE) (human, UniProt Q9ULV0 1235-1439)", "T1 construct": "also called MYO5B ABCDE exons; construct containing just the ABCDE exons", "T1 sequence": "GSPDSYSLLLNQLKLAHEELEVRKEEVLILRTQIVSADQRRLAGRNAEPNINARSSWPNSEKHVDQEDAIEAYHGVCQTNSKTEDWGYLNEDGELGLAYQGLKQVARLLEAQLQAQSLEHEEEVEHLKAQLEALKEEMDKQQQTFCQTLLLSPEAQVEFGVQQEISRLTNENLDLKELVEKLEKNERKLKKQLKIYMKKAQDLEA", "experiment": "binary yeast 2-hybrid"}}, "note": "Read-outs that look alike come from different tables or passages of the source."}
{"molecule": "CNC(=C[N+](=O)[O-])NCCSCc1csc(CN(C)C)n1", "note": "[Nizatidine]", "values": [{"measurement": "identified as hit in initial yeast 2-hybrid screen (loss of b-galactosidase activity)", "setting": "[1]", "result": "hits"}, {"measurement": "effect on colocalization of MHV M-GFP with ch-MYO5B+D 902 Tail", "setting": "[2]", "result": "disrupts the colocalization"}, {"measurement": "inhibition of the interaction between MHV M and MYO5B+D", "setting": "[2]", "result": "showed inhibition"}, {"measurement": "lowest concentration causing loss of localization between MHV M and MYO5B+D", "setting": "[2]", "result": 10, "unit": "pM"}, {"measurement": "lowest concentration that disrupted co-localization of MHV M-GFP and Cherry-MYO5B+D tail", "setting": "[2]", "result": 100, "unit": "µM"}, {"measurement": "lowest dose that disrupted co-localization of MHV M with MYO5B+D", "setting": "[2]", "result": 100, "unit": "pM"}]}
{"molecule": "NC(N)=Nc1nc(CSCCC(N)=NS(N)(=O)=O)cs1", "note": "[Famotidine]", "values": [{"measurement": "effect on the co-localization of MHV M with MYO5B+D", "setting": "[2]", "result": "no effect"}]}
{"molecule": "CN/C(=N/CCSCc1nc[nH]c1C)NC#N", "note": "[Cimetidine]", "values": [{"measurement": "effect on the co-localization of MHV M with MYO5B+D", "setting": "[2]", "result": "no effect"}]}
{"molecule": "CN1Cc2c(N)cccc2C(c2ccccc2)C1", "note": "(centres unmarked) [Nomifensine]", "values": [{"measurement": "identified as hit in initial yeast 2-hybrid screen (loss of b-galactosidase activity)", "setting": "[1]; 10 μM, 24 hours", "result": "hits"}, {"measurement": "inhibition of the interaction between MHV M and MYO5B+D", "setting": "[2]", "result": "did not alter the interaction"}]}
{"molecule": "Amiodorone", "values": [{"measurement": "identified as hit in initial yeast 2-hybrid screen (loss of b-galactosidase activity)", "setting": "[1]; 10 μM, 24 hours", "result": "hits"}, {"measurement": "inhibition of the interaction between MHV M and MYO5B+D", "setting": "[2]", "result": "showed inhibition"}]}
{"molecule": "CS(=O)(=O)Nc1ccc([N+](=O)[O-])cc1Oc1ccccc1", "note": "[Nimesulide]", "values": [{"measurement": "identified as hit in initial yeast 2-hybrid screen (loss of b-galactosidase activity)", "setting": "[1]", "result": "hits"}, {"measurement": "inhibition of the interaction between MHV M and MYO5B+D", "setting": "[2]", "result": "more equivocal effects"}]}
{"molecule": "O=C(O)Cc1ccccc1Nc1c(Cl)cccc1Cl", "note": "[Diclofenac]", "values": [{"measurement": "identified as hit in initial yeast 2-hybrid screen (loss of b-galactosidase activity)", "setting": "[1]; 10 μM, 24 hours", "result": "hits"}, {"measurement": "inhibition of the interaction between MHV M and MYO5B+D", "setting": "[2]", "result": "more equivocal effects"}]}
{"molecule": "B1", "values": [{"measurement": "binding result", "setting": "pAD-MYO5B(ABCDE)", "result": "binds"}]}
